One experiment deals with B16F10 melanoma tumors. Briefly: B16F10 melanoma tumor growth in vivo. Also noted: species or system mouse. As to conditions: B16F10-bearing mice; legend: NextA 25 mg/kg IP, αCD47 50 μg IT (FIG. 10A). From the text:
The antitumor effects of the combination therapy were also observed in the B16F10 melanoma model following the same experimental protocol as in the SM1 model. […] Regarding the immunophenotyping of tumors, there were no significant differences in the immune cell populations in the B16 TME by flow cytometry (FIG. 10B-FIG. 10E). Thus, the discrepancies between the SM1 and B16F10 tumor models could be explained by the scarce infiltration of immune cells in the TME of B16F10 tumors compared to SM1 tumors (5% versus 15%, respectively, FIG. 10F) as well as the poor immunogenicity of B16 tumors.

The next experiment relates to SM1 melanoma cells. Briefly: Flow cytometry-based phagocytosis assay, BMDMs co-cultured with SM1 cells. The class given is cell-based, mouse. As to conditions: NextA treated vs untreated macrophages (FIG. 4). As to the method: To evaluate phagocytosis by flow cytometry, SM1 melanoma cells were co-cultured with A3.1A7 cells or BMDMs derived from wild-type C57/Bl6 mice at a 2:1 ratio for 2 hr. or 4 hr. in serum-free media. Twenty-four (24) hours prior to co-culture, macrophages were polarized to their respective phenotypes as previously described in the presence or absence of NextA, and melanoma cells were untreated or treated with NextA. On the day of the co-culture, melanoma cells were stained with 1 μM of CellTrace™ CFSE Cell Proliferation Kit (ThermoFisher, C34554) and were washed extensively to remove excess dye. Phagocytosis assays were carried out in the presence of anti-mouse CD47 (clone miap301, 127502, Biolegend, San Diego, CA) and its respective isotype control (IgG, 400502, Biolegend), or anti human CD47 (clone CC2C6, 323102, Biolegend) or isotype control (MOPC-21, BE0083, Biolegend) at 25 μg/mL. Co-culture was set up in non-cell culture treated 96 U-well plates. […]
Flow cytometry data was acquired a BD FACS Celesta Cell Analyzer, and data analysis was performed with FlowJo software version 10.3. Phagocytosis was determined as the percentage of CFSE+F4/80+ or CFSE+ CD11b+ cells out of total F4/80+ or total CD11b+ cells. […]
A general note: A flow cytometer gives signals particle by particle.

Another experiment relates to SIRPα. Briefly: SIRPα gene expression in THP1-derived macrophages by qRT-PCR. The class given is cell-based, human. As to conditions: qRT-PCR (FIG. 2A). As to the method: Macrophages were polarized to M1-like phenotype using 50 ng/mL of interferon gamma (IFNγ, 575306, Biolegend) and 100 ng/mL of bacterial lipopolysaccharide (LPS, L2880, Sigma Aldrich, St. Louis, MO) for 24 hours. To polarize macrophages towards the M2-like phenotype, macrophages were stimulated with 20 ng/mL of IL-4 (214-14, PeproTech) and 20 ng/mL of IL-13 (575904, Biolegend). THP1 monocytes were treated with 5 ng/mL of phorbol 12-myristate 13-acetate (PMA) to induce differentiation into macrophages. Once converted to macrophages, media was replaced to remove PMA prior to treatment and/or polarization. Polarization towards M1 and M2 phenotypes was performed with respective recombinant human cytokines from PeproTech: 50 ng/mL of IFNγ (300-02), 20 ng/mL IL-4 (200-04), and 20 ng/mL IL-13 (200-13). 100 ng/mL LPS was also used to polarize toward the M1 phenotype. 3. In vivo Studies.
qRT-PCR: Total RNA was extracted from cells using the Trizol reagent according to manufacturer's instructions (ThermoFisher Scientific, 15596018). […] RNA was quantified using a NanoDrop One Spectrophotometer (ThermoFisher Scientific). […] Target mRNA was quantified using MyIQ single-color real-time PCR detection system from Bio-Rad (Bio-Rad, Hercules, CA) and iQ SYBR green Supermix (Bio-Rad, 1708882). […] Quantification is expressed in arbitrary units and target mRNA levels were normalized to R-actin expression.
For orientation: Real-time PCR tracks product formation cycle by cycle.

On to `CCCCN(Cc1ccc(C(=O)NO)cc1)C(=O)Nc1ccccc1` [NextA, Nexturastat A], for which, in the experiment with B16F10 melanoma tumors, the “B16 melanoma tumor growth” value was “did not decrease”. Also, in the experiment with SM1 melanoma cells, the “phagocytic capacity of macrophages” value is on record as “enhanced the phagocytic capacity”. Besides, the “SIRPα expression at the transcriptional level” value in the experiment with SIRPα is given as “significantly downregulated”.

The values are drawn from patent US20230391868A1, “COMPOSITIONS FOR AND METHODS OF TREATING CANCER” (The George Washington University, priority 2022, published 2023).
